ChEMBL document CHEMBL3046469, “Fungicidal Activities of 2-(Substituted Phenoxymethyl)phenyl-2-methoxyiminoacaetamide Derivatives” (1998)

Key:
Type in all cases: functional
[1] = system: Pyricularia oryzae; assay: Fungicidal activity against Magnaporthe oryzae assessed as rice blast disease control at 7.8 ppm foliar application for 24 hr after inoculation at 27 +/- 2 degC measured after 5 days by curative manner
[2] = system: Pyricularia oryzae; assay: Fungicidal activity against Magnaporthe oryzae assessed as rice blast disease control at 31.3 ppm foliar application for 24 hr before inoculation at 27 +/- 2 degC measured after 5 days by preventive manner
[3] = system: Podosphaera fuliginea; assay: Fungicidal activity against Podosphaera fuliginea assessed as cucumber powdery mildew control at 2 ppm foliar application 24 hr before inoculation at 23 +/- 2 degC by preventive manner
[4] = system: Blumeria graminis f. sp. tritici; assay: Fungicidal activity against Blumeria graminis f. sp. tritici assessed as wheat powdery mildew disease control at 2 ppm foliar application for 48 hr after inoculation by curative manner
[5] = system: Botrytis cinerea; assay: Fungicidal activity against Botryotinia fuckeliana assessed as cucumber gray mold disease control at 7.8 ppm foliar application […] at 22 +/- 2 degC by preventive manner
[6] = system: Podosphaera fuliginea; assay: Fungicidal activity against Podosphaera fuliginea assessed as cucumber powdery mildew control at 2 ppm foliar application 24 hr after inoculation at 23 +/- 2 degC by curative manner
[7] = system: Blumeria graminis f. sp. tritici; assay: Fungicidal activity against Blumeria graminis f. sp. tritici assessed as wheat powdery mildew disease control at 2 ppm foliar application for 48 hr before inoculation by preventive manner
[8] = system: Thanatephorus cucumeris; assay: Fungicidal activity against Thanatephorus cucumeris assessed as rice sheath blight disease control at 125 ppm foliar application for 24 hr before inoculation at 26 +/- 2 degC measured after 5 days by preventive manner
[9] = system: Pseudoperonospora cubensis; assay: Fungicidal activity against Pseudoperonospora cubensis assessed as cucumber downy mildew disease control at 7.8 ppm foliar application 24 hr before inoculation onto the abaxial(untreated) surface of leaf by preventive manner
[10] = system: Pseudoperonospora cubensis; assay: Fungicidal activity against Pseudoperonospora cubensis assessed as cucumber downy mildew disease control at 2 ppm foliar application 24 hr before inoculation onto the adaxial(treated) surface of leaf by preventive manner
[11] = system: Botrytis cinerea; assay: Fungicidal activity against Botryotinia fuckeliana assessed as cucumber gray mold disease control at 2 ppm foliar application […] at 22 +/- 2 degC by curative manner
[12] = system: Thanatephorus cucumeris; assay: Fungicidal activity against Thanatephorus cucumeris assessed as rice sheath blight disease control at 31.3 ppm foliar application for 24 hr before inoculation at 26 +/- 2 degC measured after 5 days by preventive manner
[13] = system: Pseudoperonospora cubensis; assay: Fungicidal activity against Pseudoperonospora cubensis assessed as cucumber downy mildew disease control at 2 ppm foliar application 24 hr before inoculation onto the abaxial(untreated) surface of leaf by preventive manner
[14] = system: Pyricularia oryzae; assay: Fungicidal activity against Magnaporthe oryzae assessed as rice blast disease control at 2 ppm foliar application for 24 hr after inoculation at 27 +/- 2 degC measured after 5 days by curative manner
[15] = system: Pyricularia oryzae; assay: Fungicidal activity against Magnaporthe oryzae assessed as rice blast disease control at 2 ppm foliar application for 24 hr before inoculation at 27 +/- 2 degC measured after 5 days by preventive manner
[16] = system: Blumeria graminis f. sp. tritici; assay: Fungicidal activity against Blumeria graminis f. sp. tritici assessed as wheat powdery mildew disease control at 7.8 ppm foliar application 48 hr after inoculation by curative manner
[17] = system: Pseudoperonospora cubensis; assay: Fungicidal activity against Pseudoperonospora cubensis assessed as cucumber downy mildew disease control at 125 ppm foliar application 24 hr before inoculation onto the abaxial(untreated) surface of leaf by preventive manner
[18] = system: Botrytis cinerea; assay: Fungicidal activity against Botryotinia fuckeliana assessed as cucumber gray mold disease control at 7.8 ppm foliar application […] at 22 +/- 2 degC by curative manner
[19] = system: Pyricularia oryzae; assay: Fungicidal activity against Magnaporthe oryzae assessed as rice blast disease control at 31.3 ppm foliar application for 24 hr after inoculation at 27 +/- 2 degC measured after 5 days by curative manner
[20] = system: Podosphaera fuliginea; assay: Fungicidal activity against Podosphaera fuliginea assessed as cucumber powdery mildew control at 31.3 ppm foliar application 24 hr before inoculation at 23 +/- 2 degC by preventive manner
[21] = system: Blumeria graminis f. sp. tritici; assay: Fungicidal activity against Blumeria graminis f. sp. tritici assessed as wheat powdery mildew disease control at 31.3 ppm foliar application for 48 hr after inoculation by curative manner
[22] = system: Podosphaera fuliginea; assay: Fungicidal activity against Podosphaera fuliginea assessed as cucumber powdery mildew control at 31.3 ppm foliar application 24 hr after inoculation at 23 +/- 2 degC by curative manner
[23] = system: Blumeria graminis f. sp. tritici; assay: Fungicidal activity against Blumeria graminis f. sp. tritici assessed as wheat powdery mildew disease control at 7.8 ppm foliar application 48 24 hr before inoculation by preventive manner
[24] = system: Pseudoperonospora cubensis; assay: Fungicidal activity against Pseudoperonospora cubensis assessed as cucumber downy mildew disease control at 31.3 ppm foliar application 24 hr before inoculation onto the abaxial(untreated) surface of leaf by preventive manner
[25] = system: Pseudoperonospora cubensis; assay: Fungicidal activity against Pseudoperonospora cubensis assessed as cucumber downy mildew disease control at 7.8 ppm foliar application 24 hr before inoculation onto the adaxial(treated) surface of leaf by preventive manner
[26] = system: Botrytis cinerea; assay: Fungicidal activity against Botryotinia fuckeliana assessed as cucumber gray mold disease control at 31.3 ppm foliar application […] at 22 +/- 2 degC by preventive manner
[27] = system: Pyricularia oryzae; assay: Fungicidal activity against Magnaporthe oryzae assessed as rice blast disease control at 7.8 ppm foliar application for 24 hr before inoculation at 27 +/- 2 degC measured after 5 days by preventive manner
[28] = system: Podosphaera fuliginea; assay: Fungicidal activity against Podosphaera fuliginea assessed as cucumber powdery mildew control at 7.8 ppm foliar application 24 hr before inoculation at 23 +/- 2 degC by preventive manner
[29] = system: Podosphaera fuliginea; assay: Fungicidal activity against Podosphaera fuliginea assessed as cucumber powdery mildew control at 7.8 ppm foliar application 24 hr after inoculation at 23 +/- 2 degC by curative manner
[30] = system: Pyricularia oryzae; assay: Fungicidal activity against Magnaporthe oryzae assessed as rice blast disease control at 125 ppm foliar application for 24 hr after inoculation at 27 +/- 2 degC measured after 5 days by curative manner
[31] = system: Thanatephorus cucumeris; assay: Fungicidal activity against Thanatephorus cucumeris assessed as rice sheath blight disease control at 7.8 ppm foliar application for 24 hr before inoculation at 26 +/- 2 degC measured after 5 days by preventive manner

## CNC(=O)/C(=N/OC)c1ccccc1COc1ccc(Cl)cc1
[1]
  Activity: 90%
[2]
  Activity: 90%
[3]
  Activity: 90%
[4]
  Activity: 90%
[5]
  Activity: 90%
[6]
  Activity: 90%
[7]
  Activity: 90%
[8]
  Activity: <90%
[9]
  Activity: 90%
[10]
  Activity: 90%
[11]
  Activity: 90%

## CNC(=O)/C(=N/OC)c1ccccc1COc1cc(Cl)ccc1Cl
[2]
  Activity: 90%
[3]
  Activity: 90%
[5]
  Activity: 90%
[7]
  Activity: 90%
[12]
  Activity: 90%
[13]
  Activity: 90%
[10]
  Activity: 90%

## CNC(=O)/C(=N/OC)c1ccccc1COc1ccc(-c2ccccc2)cc1
[14]
  Activity: 90%
[15]
  Activity: 90%
[3]
  Activity: 90%
[16]
  Activity: 90%
[5]
  Activity: 90%
[6]
  Activity: 90%
[7]
  Activity: 90%
[12]
  Activity: 90%
[17]
  Activity: 90%
[10]
  Activity: 90%
[18]
  Activity: 90%

## CNC(=O)/C(=N/OC)c1ccccc1COc1ccccc1
[19]
  Activity: 90%
[2]
  Activity: 90%
[20]
  Activity: 90%
[21]
  Activity: 90%
[22]
  Activity: 90%
[23]
  Activity: 90%
[8]
  Activity: 90%
[24]
  Activity: 90%
[25]
  Activity: 90%
[18]
  Activity: 90%
[26]
  Activity: 90%

## CNC(=O)/C(=N/OC)c1ccccc1COc1cccc(OC(C)C)c1
[1]
  Activity: 90%
[27]
  Activity: 90%
[28]
  Activity: 90%
[16]
  Activity: 90%
[5]
  Activity: 90%
[29]
  Activity: 90%
[7]
  Activity: 90%
[8]
  Activity: 90%
[24]
  Activity: 90%
[25]
  Activity: 90%
[18]
  Activity: 90%

## CO/N=C(/C(N)=O)c1ccccc1COc1cc(C)ccc1C
[1]
  Activity: 90%
[2]
  Activity: 90%
[3]
  Activity: 90%
[29]
  Activity: 90%
[18]
  Activity: 90%
[26]
  Activity: 90%

## CNC(=O)/C(=N\OC)c1ccccc1COc1cc(C)ccc1C
[30]
  Activity: 90%
[2]
  Activity: 90%
[28]
  Activity: 90%
[16]
  Activity: 90%
[5]
  Activity: 90%
[29]
  Activity: 90%
[7]
  Activity: 90%
[18]
  Activity: 90%

## CNC(=O)/C(=N/OC)c1ccccc1COc1cc(C)ccc1C
[31]
  Activity: 90%
[14]
  Activity: 90%
[15]
  Activity: 90%
[3]
  Activity: 90%
[4]
  Activity: 90%
[5]
  Activity: 90%
[6]
  Activity: 90%
[7]
  Activity: 90%
[9]
  Activity: 90%
[10]
  Activity: 90%
[11]
  Activity: 90%
